Data published in the supplement of paper PMC10307832.

Assays:
Assay in all cases: relative viability (nuclei count vs DMSO), 5 days (fraction); higher = more cells survive
[1] = compound: COc1cc2ncn(-c3cc(OCc4ccccc4C(F)(F)F)c(C(N)=O)s3)c2cc1OC + CS(=O)(=O)N1CCN(Cc2cc3nc(-c4cccc5[nH]ncc45)nc(N4CCOCC4)c3s2)CC1 [Pictilisib] (partner 1 µM)
Outline: (§1)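 Values are medians from duplicate plates. Each reflects relative viability, defined as the nuclei count of treated wells over that of vehicle wells. Lung cancer cell lines in 1536-well plates were pin-tool dosed one day after seeding with one drug alone or with a fixed anchor-drug dose plus five library-drug doses (not always all listed) in √10 steps, then fixed, stained and imaged at 4× after 5 days.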

[2] = compound: COc1cc2ncn(-c3cc(OCc4ccccc4C(F)(F)F)c(C(N)=O)s3)c2cc1OC + Nc1ncn([C@H]2C[C@H](O)[C@@H](CO)O2)c(=O)n1 [Decitabine] (partner 2 µM)
Outline: as §1

[3] = compound: COc1cc2ncn(-c3cc(OCc4ccccc4C(F)(F)F)c(C(N)=O)s3)c2cc1OC + C[C@@H](Oc1cc(-c2cnn(C3CCNCC3)c2)cnc1N)c1c(Cl)ccc(F)c1Cl [Crizotinib] (partner 1 µM)
Outline: as §1

[4] = compound: COc1cc2ncn(-c3cc(OCc4ccccc4C(F)(F)F)c(C(N)=O)s3)c2cc1OC + Cc1nc(NC(=O)N2CCC[C@H]2C(N)=O)sc1-c1ccnc(C(C)(C)C(F)(F)F)c1 [Alpelisib] (partner 2 µM)
Outline: as §1

[5] = compound: COc1cc2ncn(-c3cc(OCc4ccccc4C(F)(F)F)c(C(N)=O)s3)c2cc1OC + N=C(N)NC(=N)NCCc1ccccc1 [Phenformin] (partner 250 µM)
Outline: as §1

[6] = compound: COc1cc2ncn(-c3cc(OCc4ccccc4C(F)(F)F)c(C(N)=O)s3)c2cc1OC + CS(=O)(=O)CCNCc1ccc(-c2ccc3ncnc(Nc4ccc(OCc5cccc(F)c5)c(Cl)c4)c3c2)o1 [Lapatinib] (partner 2 µM)
Outline: as §1

[7] = compound: COc1cc2ncn(-c3cc(OCc4ccccc4C(F)(F)F)c(C(N)=O)s3)c2cc1OC + O=C(c1cc(Cc2n[nH]c(=O)c3ccccc23)ccc1F)N1CCN(C(=O)C2CC2)CC1 [Olaparib] (partner 8 µM)
Outline: as §1

[8] = compound: COc1cc2ncn(-c3cc(OCc4ccccc4C(F)(F)F)c(C(N)=O)s3)c2cc1OC + CC1(C)CCC(c2ccc(Cl)cc2)=C(CN2CCN(c3ccc(C(=O)NS(=O)(=O)c4ccc(N[C@H](CCN5CCOCC5)CSc5ccccc5)c(S(=O)(=O)C(F)(F)F)c4)cc3)CC2)C1 [Navitoclax] (partner 0.5 µM)
Outline: as §1

[9] = compound: COc1cc2ncn(-c3cc(OCc4ccccc4C(F)(F)F)c(C(N)=O)s3)c2cc1OC + COc1cc2c(Oc3ccc(NC(=O)C4(C(=O)Nc5ccc(F)cc5)CC4)cc3F)ccnc2cc1OCCCN1CCOCC1 [Foretinib] (partner 0.25 µM)
Outline: as §1

[10] = compound: COc1cc2ncn(-c3cc(OCc4ccccc4C(F)(F)F)c(C(N)=O)s3)c2cc1OC + C[C@]1(O)C[C@@H](c2nc(-c3ccc4ccc(-c5ccccc5)nc4c3)c3c(N)nccn32)C1 [Linsitinib] (partner 1 µM)
Outline: as §1

[11] = compound: COc1cc2ncn(-c3cc(OCc4ccccc4C(F)(F)F)c(C(N)=O)s3)c2cc1OC
Outline: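 After an overnight hold at 37 °C, lung cancer cell lines in 1536-well plates were pinned with five library-drug doses (not always all listed), each √10 from the next, on vehicle-anchored plates. The cells stayed 5 days without fresh medium, then a one-step fix, permeabilisation and Hoechst stain preceded 4× imaging and MetaXpress nuclear counts. A plate passed only with control CV under 25% and at least one doubling. Viability is the median, over plates, of treated-well nuclei relative to vehicle-well nuclei.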

[12] = compound: COc1cc2ncn(-c3cc(OCc4ccccc4C(F)(F)F)c(C(N)=O)s3)c2cc1OC + CC(C)C[C@H](NC(=O)[C@H](Cc1ccccc1)NC(=O)c1cnccn1)B(O)O [Bortezomib] (partner 0.002 µM)
Outline: as §1

A549
relative viability ([1]; first compound 0.05 µM): 0.606 | relative viability ([1]; first compound 0.1581 µM): 0.55 | relative viability ([1]; first compound 0.5 µM): 0.0875 | relative viability ([1]; first compound 1.581 µM): 0.0523 | relative viability ([1]; first compound 5 µM): 0.0706 | relative viability ([2]; first compound 0.05 µM): 0.253 | relative viability ([2]; first compound 0.1581 µM): 0.237 | relative viability ([2]; first compound 0.5 µM): 0.212 | relative viability ([2]; first compound 1.581 µM): 0.0645 | relative viability ([2]; first compound 5 µM): 0.0614 | relative viability ([3]; first compound 0.05 µM): 0.864 | relative viability ([3]; first compound 0.1581 µM): 0.612 | relative viability ([3]; first compound 0.5 µM): 0.104 | relative viability ([3]; first compound 1.581 µM): 0.0479 | relative viability ([3]; first compound 5 µM): 0.102 | relative viability ([4]; first compound 0.05 µM): 0.802 | relative viability ([4]; first compound 0.1581 µM): 0.753 | relative viability ([4]; first compound 0.5 µM): 0.186 | relative viability ([4]; first compound 1.581 µM): 0.0572 | relative viability ([4]; first compound 5 µM): 0.0466 | relative viability ([5]; first compound 0.05 µM): 0.152 | relative viability ([5]; first compound 0.1581 µM): 0.145 | relative viability ([5]; first compound 0.5 µM): 0.0554 | relative viability ([5]; first compound 1.581 µM): 0.0361 | relative viability ([5]; first compound 5 µM): 0.0267 | relative viability ([6]; first compound 0.05 µM): 0.984 | relative viability ([6]; first compound 0.1581 µM): 0.862 | relative viability ([6]; first compound 0.5 µM): 0.0918 | relative viability ([6]; first compound 1.581 µM): 0.0675 | relative viability ([6]; first compound 5 µM): 0.065 | relative viability ([7]; first compound 0.05 µM): 0.344 | relative viability ([7]; first compound 0.1581 µM): 0.215 | relative viability ([7]; first compound 0.5 µM): 0.149 | relative viability ([7]; first compound 1.581 µM): 0.0485 | relative viability ([7]; first compound 5 µM): 0.0961 | relative viability ([8]; first compound 0.05 µM): 1.25 | relative viability ([8]; first compound 0.1581 µM): 1.19 | relative viability ([8]; first compound 0.5 µM): 0.294 | relative viability ([8]; first compound 1.581 µM): 0.0413 | relative viability ([8]; first compound 5 µM): 0.0332 | relative viability ([9]; first compound 0.05 µM): 0.979 | relative viability ([9]; first compound 0.1581 µM): 1.03 | relative viability ([9]; first compound 0.5 µM): 0.423 | relative viability ([9]; first compound 1.581 µM): 0.0316 | relative viability ([9]; first compound 5 µM): 0.0318 | relative viability ([10]; first compound 0.05 µM): 0.63 | relative viability ([10]; first compound 0.1581 µM): 0.714 | relative viability ([10]; first compound 0.5 µM): 0.386 | relative viability ([10]; first compound 1.581 µM): 0.0698 | relative viability ([10]; first compound 5 µM): 0.29 | relative viability ([11]; 0.05 µM): 0.987 | relative viability ([11]; 0.1581 µM): 1.01 | relative viability ([11]; 0.5 µM): 0.399 | relative viability ([11]; 1.581 µM): 0.0506 | relative viability ([11]; 5 µM): 0.054

EBC-1
relative viability ([1]; first compound 0.05 µM): 0.478 | relative viability ([1]; first compound 0.1581 µM): 0.383 | relative viability ([1]; first compound 0.5 µM): 0.145 | relative viability ([1]; first compound 1.581 µM): 0.134 | relative viability ([1]; first compound 5 µM): 0.141 | relative viability ([3]; first compound 0.05 µM): 0.19 | relative viability ([3]; first compound 0.1581 µM): 0.204 | relative viability ([3]; first compound 0.5 µM): 0.17 | relative viability ([3]; first compound 1.581 µM): 0.169 | relative viability ([3]; first compound 5 µM): 0.14 | relative viability ([4]; first compound 0.05 µM): 0.82 | relative viability ([4]; first compound 0.1581 µM): 0.682 | relative viability ([4]; first compound 0.5 µM): 0.235 | relative viability ([4]; first compound 1.581 µM): 0.207 | relative viability ([4]; first compound 5 µM): 0.194 | relative viability ([6]; first compound 0.05 µM): 0.195 | relative viability ([6]; first compound 0.1581 µM): 0.216 | relative viability ([6]; first compound 0.5 µM): 0.199 | relative viability ([6]; first compound 1.581 µM): 0.172 | relative viability ([6]; first compound 5 µM): 0.176 | relative viability ([12]; first compound 0.05 µM): 0.454 | relative viability ([12]; first compound 0.1581 µM): 0.439 | relative viability ([12]; first compound 0.5 µM): 0.208 | relative viability ([12]; first compound 1.581 µM): 0.139 | relative viability ([12]; first compound 5 µM): 0.159 | relative viability ([7]; first compound 0.05 µM): 0.622 | relative viability ([7]; first compound 0.1581 µM): 0.758 | relative viability ([7]; first compound 0.5 µM): 0.217 | relative viability ([7]; first compound 1.581 µM): 0.154 | relative viability ([7]; first compound 5 µM): 0.128 | relative viability ([8]; first compound 0.05 µM): 0.36 | relative viability ([8]; first compound 0.1581 µM): 0.283 | relative viability ([8]; first compound 0.5 µM): 0.123 | relative viability ([8]; first compound 1.581 µM): 0.119 | relative viability ([8]; first compound 5 µM): 0.153 | relative viability ([9]; first compound 0.05 µM): 0.0982 | relative viability ([9]; first compound 0.1581 µM): 0.102 | relative viability ([9]; first compound 0.5 µM): 0.0761 | relative viability ([9]; first compound 1.581 µM): 0.0874 | relative viability ([9]; first compound 5 µM): 0.0751 | relative viability ([10]; first compound 0.05 µM): 0.798 | relative viability ([10]; first compound 0.1581 µM): 0.889 | relative viability ([10]; first compound 0.5 µM): 0.446 | relative viability ([10]; first compound 1.581 µM): 0.169 | relative viability ([10]; first compound 5 µM): 0.134 | relative viability ([11]; 0.05 µM): 0.924 | relative viability ([11]; 0.1581 µM): 0.929 | relative viability ([11]; 0.5 µM): 0.301 | relative viability ([11]; 1.581 µM): 0.19 | relative viability ([11]; 5 µM): 0.157
